Patent US7981896B2 (Athersys, Inc., priority 2006, dated 2011)

Target: T1, human histamine H3 receptor (Homo sapiens, UniProt Q9Y5N1)
T1 construct: endogenous in cells; host or cells: HT1080-Gqαi5 RAGE clone (RAGE-H3), human fibrosarcoma line; integrated RAGE vector pFG8-HH3 supplies exon 1, the cell's own gene supplies the other exons
Test: Competition radioligand binding assay with [125I]iodoproxyfan on membranes of RAGE-H3 (HT1080-Gqαi5) cells expressing human H3 receptor
Conditions: ~0.15 nM [125I]iodoproxyfan, 1.5 hrs at room temperature, head does not name the quantity (apparent Ki by Cheng-Prussof)
Protocol: Representative compounds of the present invention that were prepared by the procedures of Examples 1-83 were evaluated in binding assays against cells expressing human H3 receptor by the following procedure.
[^125I]iodoproxyfan (2000 Ci/mmol) was obtained from Amersham Bioscience (Piscataway, N.J.). All other chemicals were either from Sigma-Aldrich (St. Louis, Mo.) or Tocris Cookson Inc. (Ellisville, Mo.).
The human histamine H3 receptor was stably expressed in HT1080 cells containing the chimeric G-protein, Gq[…]i5 (Coward et al., Anal Biochem 1999; 270:242-8). HT1080-Gqαi5 cells were grown in alpha-modified MEM containing 10% fetal bovine serum and 7 μg/ml blasticidin at 37° C. in 5% CO2/95% atmosphere. Cells (4.8×10^9) were irradiated with 50 rads from a ^137Cs source and the pFG8-HH3 RAGE (Random Activation of Gene Expression; see Harrington et al., Nature Biotechnology. 2001; 19:440-45) vector was subsequently integrated into the cells via electroporation (250V, 600 μF, 50Ω). The RAGE vector pFG8-HH3 contained cDNA sequence coding for the first exon (83 amino acids) of human H3 receptor. After electroporation, cells were plated in T75 flasks and grown in alpha-modified MEM. The culture medium was replaced 48 hrs after electroporation with alpha-modified MEM, 10% fetal bovine serum, 500 μg/ml hygromycin B and 3 μg/ml puromycin. Medium was replaced every four days during cell expansion. To identify RAGE activated cells expressing the H3 receptor, pools of approximately 10,000 colonies (5×10^7-1.5×10^8 cells total) were screened by PCR for the desired gene product (using primers specific to the RAGE vector and exon 2 of the H3 receptor). […] Positive 100 cells/well pools were identified by PCR, confirmed by sequencing, and subsequently subcloned to 0.8 cells/well. Once clones expressing the H3 receptor were identified by PCR analysis, assays (FLIPR or radioligand binding) were performed to confirm that the activated gene produced functional protein. The protein expression in the initial clones obtained from the RAGE library was increased by growth in the presence of methotrexate. Since the integrated RAGE vector contains the DHFR gene, such treatment selects for cells that have amplified the genetic locus containing the RAGE insert. Subclones obtained after methotrexate amplification were tested for functional activity in FLIPR assays to identify the clone that was most suitable for HTS. The final HT1080-Gqαi5 RAGE clone (RAGE-H3) expressing the human histamine H3 receptor was grown in alpha-modified MEM containing 10% fetal bovine serum, 3 μg/ml puromycin, 500 μg/ml hygromycin B, 3.2 μM methotrexate at 37° C. in 5% CO2/95% atmosphere.
RAGE-H3 cells (10^9) were washed twice with cold PBS, scraped off the plates, and centrifuged at 1000×g for 5 minutes. Cells were resuspended in ice-cold 10 mM Tris HCl, pH 7.4, containing 5 mM EDTA and protease inhibitor cocktail tablets (Roche Molecular Biochemicals). After incubating on ice for 10 min, the cells were homogenized with a dounce homogenizer or a polytron tissue grinder, and centrifuged at 1000×g for 10 min at 4° C. The resulting supernatant was centrifuged at 32,000×g for 30 min at 4° C. The membrane pellets were resuspended in 50 mM Tris HCl, pH 7.4, and stored at −80° C. until use. Protein concentration was determined by the Bradford method (Bio-Rad Laboratories, CA).
Binding assays were carried out in 96-well polypropylene plates in 50 mM Tris HCl, pH 7.4, containing 1 mM EDTA. Reaction mixtures contained 100 μl of membrane suspension, 50 μl of 4% DMSO, and 50 μl of increasing amounts of [^125I]iodoproxyfan (final concentration 0.0005-1.8 nM for human H3 receptor saturation binding assay). Nonspecific binding was defined by adding 10 μM clobenpropit to the reaction mixtures. […]

T1 sequence (Q9Y5N1 whole entry): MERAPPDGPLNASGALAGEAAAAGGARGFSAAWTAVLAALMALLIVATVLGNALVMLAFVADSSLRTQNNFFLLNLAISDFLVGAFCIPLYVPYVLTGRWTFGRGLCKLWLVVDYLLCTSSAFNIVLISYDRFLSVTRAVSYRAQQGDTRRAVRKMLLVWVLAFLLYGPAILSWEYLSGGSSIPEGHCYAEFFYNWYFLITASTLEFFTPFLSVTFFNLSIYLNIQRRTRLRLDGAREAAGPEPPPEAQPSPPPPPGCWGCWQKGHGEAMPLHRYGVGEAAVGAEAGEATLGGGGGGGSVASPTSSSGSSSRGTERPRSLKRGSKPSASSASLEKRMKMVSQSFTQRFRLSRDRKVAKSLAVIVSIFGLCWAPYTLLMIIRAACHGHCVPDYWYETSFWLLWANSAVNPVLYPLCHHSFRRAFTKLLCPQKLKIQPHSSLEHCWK

SMILES	Ki
CCc1cc(CC)n(-c2ccc(OCCCN3CCOCC3)cc2)n1 [Example 23, 3,5-Diethyl-1-[4-(3-morpholin-1-ylpropoxy)phenyl]-1H-pyrazole]	< 1 µM
Cc1cc(CC(C)C)n(-c2ccc(OCCCN3CCCC3)cc2)n1 [Example 28, 5-Isobutyl-3-methyl-1-[4-(3-pyrrolidin-1-ylpropoxy)-phenyl]-1H-pyrazole]	< 0.1 µM
Cc1cc(CC(C)C)n(-c2ccc(OCCCN3CCCCC3)cc2)n1 [Example 29, 5-Isobutyl-3-methyl-1-[4-(3-piperidin-1-ylpropoxy)-phenyl]-1H-pyrazole]	< 0.1 µM
Cc1cc(CC(C)C)nn1-c1ccc(OCCCN2CCCCC2)cc1 [Example 30]	< 0.01 µM
Cc1cc(CC(C)C)nn1-c1ccc(OCCCN2CCCC2)cc1 [Example 31]	< 0.01 µM
Cc1cc(C(C)(C)C)n(-c2ccc(OCCCN3CCCCC3)cc2)n1 [Example 34, 5-tert-Butyl-3-methyl-1-[4-(3-piperidin-1-ylpropoxy)-phenyl]-1H-pyrazole]	< 0.1 µM
Cc1cc(-c2ccccc2)n(-c2ccc(OCCCN3CCCC3)cc2)n1 [Example 41]	< 0.01 µM
C[C@@H]1CCCN1CCCOc1ccc(-n2nc(C(F)(F)F)cc2-c2ccccc2)cc1 [Example 51, 1-{4-[3-(2-(R)-Methyl-pyrrolidin-1-yl)-propoxy]-phenyl}-5-phenyl-3-trifluoromethyl-1H-pyrazole]	< 0.1 µM
CN(C)C1CCN(CCCOc2ccc(-n3nc(C(F)(F)F)cc3-c3ccccc3)cc2)C1 (centres unmarked) [Example 52, Dimethyl-(1-{3-[4-(5-phenyl-3-trifluoromethyl-pyrazol-1-yl)-phenoxy]-propyl}-pyrrolidin-3-yl)-amine]	< 10 µM
FC(F)(F)c1cc(-c2ccccc2)n(-c2ccc(OCCCN3CCOCC3)cc2)n1 [Example 53, 4-{3-[4-(5-Phenyl-3-trifluoromethyl-pyrazol-1-yl)-phenoxy]-propyl}-morpholine]	< 1 µM
FC(F)(F)c1cc(-c2ccccc2)n(-c2ccc(OCCCN3CCCCC3)cc2)n1 [Example 54, 1-{3-[4-(5-Phenyl-3-trifluoromethyl-pyrazol-1-yl)-phenoxy]-propyl}-piperidine]	< 0.1 µM
Cc1c2c(nn1-c1ccc(OCCCN3CCCC3)cc1)CCC2 [Example 58, 3-Methyl-2-[4-(3-pyrrolidin-1-yl-propoxy)-phenyl]-2,4,5,6-tetrahydro-cyclopentapyrazole]	< 0.1 µM
Cc1c2c(nn1-c1ccc(OCCCN3CCCCC3)cc1)CCC2 [Example 60, 3-Methyl-2-[4-(3-piperidin-1-yl-propoxy)-phenyl]-2,4,5,6-tetrahydro-cyclopentapyrazole]	< 0.01 µM
Cc1cc(OCCCN2CCCC2)ccc1-n1nc(C(C)C)cc1C(C)C [Example 61, 3,5-Diisopropyl-1-[2-methyl-4-(3-pyrrolidin-1-ylpropoxy)phenyl]-1H-pyrazole]	< 0.01 µM
Cc1cc(OCCCN2CCCCC2)ccc1-n1nc(C(C)C)cc1C(C)C [Example 62, 3,5-Diisopropyl-1-[2-methyl-4-(3-piperidin-1-ylpropoxy)phenyl]-1H-pyrazole]	< 0.01 µM
FC(F)(F)c1cc(-c2cc3ccccc3o2)n(-c2ccc(OCCCN3CCCC3)cc2)n1 [Example 63, 5-Benzofuran-2-yl-1-[4-(3-pyrrolidin-1-ylpropoxy)phenyl]-3-trifluoromethyl-1H-pyrazole]	< 0.1 µM
Cc1nn(-c2ccc(OCCCN3CCCC3)cc2)c2c1sc1ccccc12 [Example 64, 3-Methyl-1-[4-(3-pyrrolidin-1-yl-propoxy)-phenyl]-1H-benzo[4,5]thieno[3,2-c]pyrazole]	< 0.01 µM

Next, values leading:

Ki	SMILES
< 0.01 µM	CCc1cc(CC)n(-c2ccc(OCCCN3CCCC3)cc2)n1 [Example 21, 3,5-Diethyl-1-[4-(3-pyrrolidin-1-ylpropoxy)phenyl]-1H-pyrazole]
< 0.01 µM	CCc1cc(CC)n(-c2ccc(OCCCN3CCCCC3)cc2)n1 [Example 22, 3,5-Diethyl-1-[4-(3-piperidin-1-ylpropoxy)phenyl]-1H-pyrazole]
< 0.01 µM	CC(C)c1cc(C(C)C)n(-c2ccc(OCCCN3CCCC3)cc2)n1 [Example 24, 3,5-Diisopropyl-1-[4-(3-pyrrolidin-1-yl-propoxy)-phenyl]-1H-pyrazole]
< 0.01 µM	CC(C)c1cc(C(C)C)n(-c2ccc(OCCCN3CCCCC3)cc2)n1 [Example 25, 3,5-Diisopropyl-1-[4-(3-piperidin-1-yl-propoxy)-phenyl]-1H-pyrazole]
< 0.01 µM	Cc1cc(C(C)(C)C)nn1-c1ccc(OCCCN2CCCC2)cc1 [Example 26, 3-tert-Butyl-5-methyl-1-[4-(3-pyrrolidin-1-ylpropoxy)-phenyl]-1H-pyrazole]
< 0.01 µM	Cc1cc(C(C)(C)C)nn1-c1ccc(OCCCN2CCCCC2)cc1 [Example 27, 3-tert-Butyl-5-methyl-1-[4-(3-piperidin-1-ylpropoxy)-phenyl]-1H-pyrazole]
< 0.01 µM	CC(C)c1cc(C(C)C)n(-c2ccc(OC3CCN(C4CCC4)CC3)cc2)n1 [Example 32, 1-Cyclobutyl-4-[4-(3,5-diisopropylpyrazol-1-yl)phenoxy]piperidine]
< 0.01 µM	Cc1cc(C(C)(C)C)n(-c2ccc(OCCCN3CCCC3)cc2)n1 [Example 33, 5-tert-Butyl-3-methyl-1-[4-(3-pyrrolidin-1-ylpropoxy)-phenyl]-1H-pyrazole]
< 0.01 µM	Cc1nn(-c2ccc(OCCCN3CCCC3)cc2)c(C)c1C [Example 36, 3,4,5-Trimethyl-1-[4-(3-pyrrolidin-1-ylpropoxy)phenyl]-1H-pyrazole]
< 0.01 µM	CCc1c(C)nn(-c2ccc(OCCCN3CCCC3)cc2)c1C [Example 37, 4-Ethyl-3,5-dimethyl-1-[4-(3-pyrrolidin-1-ylpropoxy)phenyl]-1H-pyrazole]
< 0.01 µM	CCCCc1c(C)nn(-c2ccc(OCCCN3CCCC3)cc2)c1C [Example 38, 4-Butyl-3,5-dimethyl-1-[4-(3-pyrrolidin-1-ylpropoxy)phenyl]-1H-pyrazole]
< 0.01 µM	Cc1nn(-c2ccc(OCCCN3CCCC3)cc2)c(C)c1-c1ccccc1 [Example 39, 4-Phenyl-3,5-dimethyl-1-[4-(3-pyrrolidin-1-ylpropoxy)phenyl]-1H-pyrazole]
< 0.01 µM	Cc1cc(-c2ccccc2)nn1-c1ccc(OCCCN2CCCC2)cc1 [Example 40, 5-Methyl-3-phenyl-1-[4-(3-pyrrolidin-1-ylpropoxy)phenyl]-1H-pyrazole]
< 0.01 µM	CC(C)(C)c1cc(-c2ccccc2)n(-c2ccc(OCCCN3CCCC3)cc2)n1 [Example 42, 3-tert-Butyl-5-phenyl-1-[4-(3-pyrrolidin-1-ylpropoxy)phenyl]-1H-pyrazole]
< 0.01 µM	FC(F)(F)c1cc(-c2ccccc2)n(-c2ccc(OCCCN3CCCC3)cc2)n1 [Example 50, 5-Phenyl-1-[4-(3-pyrrolidin-1-yl-propoxy)-phenyl]-3-trifluoromethyl-1H-pyrazole]
< 0.01 µM	Cc1nn(-c2ccc(OCCCN3CCCC3)cc2)c2c1CCCC2 [Example 55, 3-Methyl-1-[4-(3-pyrrolidin-1-yl-propoxy)-phenyl]-4,5,6,7-tetrahydro-1H-indazole]
< 0.001 µM	Cc1c2c(nn1-c1ccc(OCCCN3CCCC3)cc1)CCCC2 [Example 56, 3-Methyl-2-[4-(3-pyrrolidin-1-yl-propoxy)-phenyl]-4,5,6,7-tetrahydro-2H-indazole]
< 0.01 µM	Cc1nn(-c2ccc(OCCCN3CCCC3)cc2)c2c1CCC2 [Example 57, 3-Methyl-1-[4-(3-pyrrolidin-1-yl-propoxy)-phenyl]-1,4,5,6-tetrahydro-cyclopentapyrazole]
